# Like-named read-outs stand apart in the source and are kept apart here.
# Key:
# [1] = tested on: PSMA + PC-3 PiP and PSMA − PC-3 flu tumor xenografts; settings: radioiodinated compound, Chen et al., 2008; cited from earlier work
# [2] = tested on: PSMA + PC-3 PiP and PSMA − PC-3 flu tumor xenografts; settings: for Biodistribution: PC-3 PiP: PSMA+ tumor xenograft; for Biodistribution: PC-3 flu: PSMA− tumor xenograft; for PSMA positive tumor uptake (in words): biodistributions of Tables 2, 3, 9, 10
# [3] = 21 H post-injection, comparative Table 13
smiles,measurement,setting,value
O=C(O)CC[C@H](NC(=O)N[C@@H](CCCCNC(=O)c1ccc(I)cc1)C(=O)O)C(=O)O [YC-I-27],Tumor uptake (in words),[1],high and prolonged tumor uptake
O=C(O)CC[C@H](NC(=O)N[C@@H](CCCCNC(=O)c1ccc([131I])cc1)C(=O)O)C(=O)O [[^131I]YC-I-27],Biodistribution: Sm int.,[2]; 1 H post-injection,1.83 ± 0.41 % ID/g
same,Biodistribution: bladder,[2]; 1 H post-injection,2.99 ± 0.42 % ID/g
same,Biodistribution: blood,[2]; 1 H post-injection,1.57 ± 0.69 % ID/g
same,Biodistribution: heart,[2]; 1 H post-injection,1.88 ± 0.66 % ID/g
same,Biodistribution: liver,[2]; 1 H post-injection,7.37 ± 1.29 % ID/g
same,Biodistribution: lung,[2]; 1 H post-injection,4.67 ± 0.63 % ID/g
same,Biodistribution: muscle,[2]; 1 H post-injection,0.73 ± 0.22 % ID/g
same,Biodistribution: spleen,[2]; 1 H post-injection,21.2 ± 3.62 % ID/g
same,Biodistribution: stomach,[2]; 1 H post-injection,0.92 ± 0.16 % ID/g
same,Biodistribution: thyroid,[2]; 1 H post-injection,0.45 ± 0.14 % ID/g
same,Biodistribution: Sm int.,[2]; 2 H post-injection,1.92 ± 0.55 % ID/g
same,Biodistribution: bladder,[2]; 2 H post-injection,2.96 ± 1.12 % ID/g
same,Biodistribution: blood,[2]; 2 H post-injection,0.86 ± 0.20 % ID/g
same,Biodistribution: heart,[2]; 2 H post-injection,1.31 ± 0.58 % ID/g
same,Biodistribution: liver,[2]; 2 H post-injection,5.69 ± 1.49 % ID/g
same,Biodistribution: lung,[2]; 2 H post-injection,4.92 ± 1.95 % ID/g
same,Biodistribution: muscle,[2]; 2 H post-injection,0.62 ± 0.19 % ID/g
same,Biodistribution: spleen,[2]; 2 H post-injection,26.25 ± 15.11 % ID/g
same,Biodistribution: stomach,[2]; 2 H post-injection,0.71 ± 0.46 % ID/g
same,Biodistribution: thyroid,[2]; 2 H post-injection,0.24 ± 0.18 % ID/g
same,Biodistribution: Sm int.,[2]; 4 H post-injection,1.37 ± 0.51 % ID/g
same,Biodistribution: bladder,[2]; 4 H post-injection,1.37 ± 0.48 % ID/g
same,Biodistribution: blood,[2]; 4 H post-injection,0.59 ± 0.27 % ID/g
same,Biodistribution: heart,[2]; 4 H post-injection,0.87 ± 0.24 % ID/g
same,Biodistribution: liver,[2]; 4 H post-injection,3.21 ± 1.14 % ID/g
same,Biodistribution: lung,[2]; 4 H post-injection,2.72 ± 1.01 % ID/g
same,Biodistribution: muscle,[2]; 4 H post-injection,0.43 ± 0.30 % ID/g
same,Biodistribution: spleen,[2]; 4 H post-injection,18.2 ± 6.19 % ID/g
same,Biodistribution: stomach,[2]; 4 H post-injection,0.69 ± 0.23 % ID/g
same,Biodistribution: thyroid,[2]; 4 H post-injection,0.10 ± 0.22 % ID/g
same,Biodistribution: Sm int.,[2]; 21 H post-injection,0.33 ± 0.12 % ID/g
same,Biodistribution: bladder,[2]; 21 H post-injection,0.48 ± 0.09 % ID/g
same,Biodistribution: blood,[2]; 21 H post-injection,0.16 ± 0.06 % ID/g
same,Biodistribution: heart,[2]; 21 H post-injection,0.46 ± 0.22 % ID/g
same,Biodistribution: liver,[2]; 21 H post-injection,0.56 ± 0.09 % ID/g
same,Biodistribution: lung,[2]; 21 H post-injection,1.63 ± 0.47 % ID/g
same,Biodistribution: muscle,[2]; 21 H post-injection,0.14 ± 0.03 % ID/g
same,Biodistribution: spleen,[2]; 21 H post-injection,5.25 ± 1.51 % ID/g
same,Biodistribution: stomach,[2]; 21 H post-injection,0.40 ± 0.07 % ID/g
same,Biodistribution: thyroid,[2]; 21 H post-injection,0.13 ± 0.11 % ID/g
same,Biodistribution: PC-3 PiP,[2]; 1 H post-injection,13.1 ± 5.55 % ID/g
same,Biodistribution: PC-3 PiP,[2]; 2 H post-injection,15.5 ± 4.19 % ID/g
same,Biodistribution: PC-3 PiP,[2]; 4 H post-injection,16.3 ± 3.80 % ID/g
same,Biodistribution: PC-3 PiP,[2]; 21 H post-injection,25.6 ± 10.2 % ID/g
same,Biodistribution: PC-3 flu,[2]; 1 H post-injection,0.62 ± 0.11 % ID/g
same,Biodistribution: PC-3 flu,[2]; 2 H post-injection,0.40 ± 0.11 % ID/g
same,Biodistribution: PC-3 flu,[2]; 4 H post-injection,0.22 ± 0.07 % ID/g
same,Biodistribution: PC-3 flu,[2]; 21 H post-injection,0.06 ± 0.01 % ID/g
same,PSMA positive tumor uptake (in words),[2],demonstrated PSMA positive tumor uptake
N=C(N)NCc1ccc(C(=O)NCCCCC(NC(=O)CCCCCCC(=O)NCCCC[C@H](NC(=O)N[C@@H](CCC(=O)O)C(=O)O)C(=O)O)C(=O)O)cc1[211At] (stereo partly shown) [[^211At] labeled PSMA-904],Biodistribution: Lrg Int.,[2]; 1 H post-injection,0.75 ± 0.98 % ID/g
same,Biodistribution: Sm int.,[2]; 1 H post-injection,33.9 ± 5.49 % ID/g
same,Biodistribution: bladder,[2]; 1 H post-injection,1.17 ± 0.20 % ID/g
same,Biodistribution: blood,[2]; 1 H post-injection,0.65 ± 0.33 % ID/g
same,Biodistribution: heart,[2]; 1 H post-injection,0.84 ± 0.27 % ID/g
same,Biodistribution: kidney,[2]; 1 H post-injection,86.5 ± 15.5 % ID/g
same,Biodistribution: liver,[2]; 1 H post-injection,5.11 ± 4.13 % ID/g
same,Biodistribution: lung,[2]; 1 H post-injection,2.24 ± 0.51 % ID/g
same,Biodistribution: muscle,[2]; 1 H post-injection,0.38 ± 0.16 % ID/g
same,Biodistribution: spleen,[2]; 1 H post-injection,9.51 ± 2.76 % ID/g
same,Biodistribution: stomach,[2]; 1 H post-injection,1.64 ± 0.62 % ID/g
same,Biodistribution: thyroid,[2]; 1 H post-injection,0.51 ± 0.16 % ID/g
same,Biodistribution: Lrg Int.,[2]; 2 H post-injection,26.7 ± 15.3 % ID/g
same,Biodistribution: Sm int.,[2]; 2 H post-injection,13.8 ± 10.9 % ID/g
same,Biodistribution: bladder,[2]; 2 H post-injection,1.30 ± 0.24 % ID/g
same,Biodistribution: blood,[2]; 2 H post-injection,0.35 ± 0.03 % ID/g
same,Biodistribution: heart,[2]; 2 H post-injection,0.76 ± 0.11 % ID/g
same,Biodistribution: kidney,[2]; 2 H post-injection,87.7 ± 11.0 % ID/g
same,Biodistribution: liver,[2]; 2 H post-injection,3.80 ± 2.39 % ID/g
same,Biodistribution: lung,[2]; 2 H post-injection,1.96 ± 0.26 % ID/g
same,Biodistribution: muscle,[2]; 2 H post-injection,0.21 ± 0.03 % ID/g
same,Biodistribution: spleen,[2]; 2 H post-injection,4.31 ± 1.96 % ID/g
same,Biodistribution: stomach,[2]; 2 H post-injection,2.86 ± 0.67 % ID/g
same,Biodistribution: thyroid,[2]; 2 H post-injection,1.03 ± 0.26 % ID/g
same,Biodistribution: Lrg Int.,[2]; 21 H post-injection,8.55 ± 5.07 % ID/g
same,Biodistribution: Sm int.,[2]; 21 H post-injection,1.51 ± 0.91 % ID/g
same,Biodistribution: bladder,[2]; 21 H post-injection,1.99 ± 0.54 % ID/g
same,Biodistribution: blood,[2]; 21 H post-injection,0.48 ± 0.13 % ID/g
same,Biodistribution: heart,[2]; 21 H post-injection,1.12 ± 0.27 % ID/g
same,Biodistribution: kidney,[2]; 21 H post-injection,4.38 ± 3.46 % ID/g
same,Biodistribution: liver,[2]; 21 H post-injection,0.59 ± 0.21 % ID/g
same,Biodistribution: lung,[2]; 21 H post-injection,2.89 ± 0.93 % ID/g
same,Biodistribution: muscle,[2]; 21 H post-injection,0.22 ± 0.06 % ID/g
same,Biodistribution: spleen,[2]; 21 H post-injection,2.07 ± 0.68 % ID/g
same,Biodistribution: stomach,[2]; 21 H post-injection,9.36 ± 2.18 % ID/g
same,Biodistribution: thyroid,[2]; 21 H post-injection,3.74 ± 1.42 % ID/g
same,Biodistribution: PC-3 PiP,[2]; 1 H post-injection,22.7 ± 5.42 % ID/g
same,Biodistribution: PC-3 PiP,[2]; 2 H post-injection,21.1 ± 6.16 % ID/g
same,Biodistribution: PC-3 PiP,[2]; 21 H post-injection,12.1 ± 5.03 % ID/g
same,Biodistribution: PC-3 flu,[2]; 1 H post-injection,0.80 ± 0.30 % ID/g
same,Biodistribution: PC-3 flu,[2]; 2 H post-injection,0.52 ± 0.05 % ID/g
same,Biodistribution: PC-3 flu,[2]; 21 H post-injection,0.84 ± 0.23 % ID/g
O=C(O)CC[C@H](NC(=O)N[C@@H](CCC(=O)NCCc1ccc([211At])cc1)C(=O)O)C(=O)O [[^211At]HS-549],Biodistribution: Lrg Int.,[2]; 1 H post-injection,1.16 ± 0.20 % ID/g
same,Biodistribution: Sm int.,[2]; 1 H post-injection,5.52 ± 0.82 % ID/g
same,Biodistribution: bladder,[2]; 1 H post-injection,5.85 ± 1.62 % ID/g
same,Biodistribution: blood,[2]; 1 H post-injection,5.53 ± 0.84 % ID/g
same,Biodistribution: heart,[2]; 1 H post-injection,4.34 ± 0.96 % ID/g
same,Biodistribution: kidney,[2]; 1 H post-injection,46.7 ± 8.24 % ID/g
same,Biodistribution: liver,[2]; 1 H post-injection,7.94 ± 2.15 % ID/g
same,Biodistribution: lung,[2]; 1 H post-injection,9.77 ± 1.75 % ID/g
same,Biodistribution: muscle,[2]; 1 H post-injection,1.11 ± 0.29 % ID/g
same,Biodistribution: spleen,[2]; 1 H post-injection,8.79 ± 2.09 % ID/g
same,Biodistribution: stomach,[2]; 1 H post-injection,7.07 ± 2.24 % ID/g
same,Biodistribution: thyroid,[2]; 1 H post-injection,3.24 ± 0.56 % ID/g
same,Biodistribution: Lrg Int.,[2]; 2 H post-injection,4.59 ± 0.81 % ID/g
same,Biodistribution: Sm int.,[2]; 2 H post-injection,3.81 ± 1.24 % ID/g
same,Biodistribution: bladder,[2]; 2 H post-injection,5.04 ± 0.87 % ID/g
same,Biodistribution: blood,[2]; 2 H post-injection,2.87 ± 0.40 % ID/g
same,Biodistribution: heart,[2]; 2 H post-injection,3.36 ± 0.59 % ID/g
same,Biodistribution: kidney,[2]; 2 H post-injection,40.4 ± 15.5 % ID/g
same,Biodistribution: liver,[2]; 2 H post-injection,4.65 ± 1.28 % ID/g
same,Biodistribution: lung,[2]; 2 H post-injection,8.24 ± 2.25 % ID/g
same,Biodistribution: muscle,[2]; 2 H post-injection,0.76 ± 0.18 % ID/g
same,Biodistribution: spleen,[2]; 2 H post-injection,6.13 ± 1.59 % ID/g
same,Biodistribution: stomach,[2]; 2 H post-injection,14.3 ± 3.18 % ID/g
same,Biodistribution: thyroid,[2]; 2 H post-injection,4.11 ± 2.0 % ID/g
same,Biodistribution: Lrg Int.,[2]; 21 H post-injection,0.93 ± 0.41 % ID/g
same,Biodistribution: Sm int.,[2]; 21 H post-injection,1.28 ± 0.30 % ID/g
same,Biodistribution: bladder,[2]; 21 H post-injection,2.78 ± 0.82 % ID/g
same,Biodistribution: blood,[2]; 21 H post-injection,0.92 ± 0.15 % ID/g
same,Biodistribution: kidney,[2]; 21 H post-injection,2.60 ± 0.77 % ID/g
same,Biodistribution: liver,[2]; 21 H post-injection,0.89 ± 0.13 % ID/g
same,Biodistribution: lung,[2]; 21 H post-injection,4.26 ± 0.72 % ID/g
same,Biodistribution: muscle,[2]; 21 H post-injection,0.29 ± 0.09 % ID/g
same,Biodistribution: spleen,[2]; 21 H post-injection,2.31 ± 0.67 % ID/g
same,Biodistribution: stomach,[2]; 21 H post-injection,12.6 ± 6.20 % ID/g
same,Biodistribution: thyroid,[2]; 21 H post-injection,3.78 ± 0.63 % ID/g
same,Non-target organ uptake: spleen,[2]; [3],2.2 % D/g
same,Non-target organ uptake: stomach,[2]; [3],12.6 % D/g
same,Non-target organ uptake: thyroid,[2]; [3],3.8 % D/g
same,Biodistribution: PC-3 PiP,[2]; 1 H post-injection,43.25 ± 9.81 % ID/g
same,Biodistribution: PC-3 PiP,[2]; 2 H post-injection,42.0 ± 7.16 % ID/g
same,Biodistribution: PC-3 PiP,[2]; 21 H post-injection,10.6 ± 9.91 % ID/g
same,Biodistribution: PC-3 flu,[2]; 1 H post-injection,3.48 ± 0.53 % ID/g
same,Biodistribution: PC-3 flu,[2]; 2 H post-injection,2.82 ± 0.60 % ID/g
same,PSMA positive tumor uptake (in words),[2],demonstrated PSMA positive tumor uptake
same,Renal clearance and normal tissue uptake (in words),[2]; compared with YC-I-27,faster renal clearance and lower normal tissue uptake than YC-I-27
same,Clearance from the kidneys (in words),[2]; compared with [^131I]YC-I-27 and [^211At]YC-I-27,clear from the kidneys giving higher tumor to kidney ratios
same,In vivo stability of the At-211 label (in words),"[2]; from uptake in stomach, spleen and thyroid compared to the ^131I analogue",some instability of the At-211 label

# — patent US20200231614A1, “PSMA TARGETED RADIOHALOGENATED UREAS FOR CANCER RADIOTHERAPY” (THE JOHNS HOPKINS UNIVERSITY, priority 2015, published 2020)
